# Measurements: PubChem BioAssay AID504610 (National Center for Advancing Translational Sciences (NCATS), 2011)
# System: mouse plasma stability, LC-MS/MS, 48 h
# Assay: Inhibitors of 12-hLO: Mouse Plasma Stability Profiling
# Conditions: at 2 µM; active compounds read high
# From the text: Assay Provider: Holman, T.R., University of California, Santa Cruz Grant #: MH08128301 Screening Center PI: Austin, C.P. Screening Center: NIH Chemical Genomics Center [NCGC] Human lipoxygenase 12hLO is a member of the closely related lipoxygenase family of enzymes which catalyze the site-specific oxidation of arachidonic acid to various hormone precursor molecules and as such is a candidate for drug development in a variety of disease areas, such as cancer and inflammation. After qHTS, hits were confirmed in follow-up assays, and leads were optimized through SAR. The resulting lead compound was further characterized through a battery ADME-Tox experiments, and this assay describes its stability in mouse plasma. The stability of the lead compound in […] is tested because this parameter has a significant impact on many ADME-concerned properties of drugs, such as uptake, distribution, transport, and eventually bioavailability.
# 2microM of compound is incubated in PBS buffer at pH 7; the reference compound is procaine. Compounds are incubated at 37 deg C for the pre-determined time periods and the when aliquots are removed. Samples are analyzed with LC-MS/MS.
smiles,measurement,value
CC(=O)NC(c1cccs1)c1cc(Br)c2cccnc2c1O (stereo unspecified),percent remaining,98.3%
